Type in all cases: cell-based, human
Assay [1] concerns LoVo (Colorectal Adenocarcinoma). Description: Cell viability analysis, colon cancer LoVo. Conditions: Homo sapiens, LoVo, 72 h.
In assay [2] the test system is HL-60 (Acute Promyelocytic Leukemia). Description: Cell viability analysis, leukemia HL-60. Conditions: Homo sapiens, HL-60, 72 h.
The test system of the next assay is cancer cell lines. Description: Cell viability analysis (WST-1) on cancer cell lines. The settings on record: drug 10 μM, 72 hours, WST-1; Table 3. For orientation: Formazan colour is commonly taken as a measure of viable cells.
The test system of assay [3] is MKN-45 (Gastric Adenocarcinoma). As to the kind of experiment: Cell viability analysis, gastric cancer MKN-45. The settings on record: Homo sapiens, MKN-45, 72 h.
The test system of assay [4] is HeLa (Cervix Adenocarcinoma). Description: Cell viability analysis, cervical cancer HeLa. The settings on record: Homo sapiens, HeLa, 72 h.
Assay [5] relates to A375 (Amelanotic Melanoma). As to the kind of experiment: Cell viability analysis, skin cancer A375. The settings on record: Homo sapiens, A-375, 72 h.
Assay [6] concerns HepG2 (Hepatocellular Carcinoma). Description: Cell viability analysis, hepatic cancer HepG2. Conditions: Homo sapiens, HepG2, 72 h.
Assay [7] has as its system A549 (Lung Adenocarcinoma). As to the kind of experiment: Cell viability analysis, lung cancer A549. The settings on record: Homo sapiens, A549, 72 h.
In assay [8] the test system is MCF7 (Mammary Gland, Adenocarcinoma). As to the kind of experiment: Cell viability analysis, breast cancer MCF7. The settings on record: Homo sapiens, MCF7, 72 h.
The test system of assay [9] is AGS (Gastric Adenocarcinoma). As to the kind of experiment: Cell viability analysis, gastric cancer AGS. Conditions: Homo sapiens, 72 h.
Assay [10] relates to PC3 (p53−) (Prostate Adenocarcinoma). As to the kind of experiment: Cell viability analysis, prostate cancer PC3. Conditions: Homo sapiens, 72 h.
Assay [11] relates to TSGH-8301 (Urinary Bladder Carcinoma). Description: Cell viability analysis, bladder cancer TSGH-8301. Conditions: Homo sapiens, 72 h.
Assay [12] concerns HI650 (Lung Adenocarcinoma). Description: Cell viability analysis, lung cancer HI650. The settings on record: Homo sapiens, NCI-H1650, 72 h.
Setting [13] is: read-out: cell viability (survival rate), LoVo, drug 10 μM, 72 hours, WST-1, OD450 nm.
The mark [14] stands for this setting: read-out: cell viability (survival rate), HL-60, drug 10 μM, 72 hours, WST-1, OD450 nm.
The mark [15] stands for this setting: read-out: cell viability (survival rate), MKN-45, drug 10 μM, 72 hours, WST-1, OD450 nm.
The mark [16] stands for this setting: read-out: cell viability (survival rate), HeLa, drug 10 μM, 72 hours, WST-1, OD450 nm.
Setting [17] is: read-out: cell viability (survival rate), A375, drug 10 μM, 72 hours, WST-1, OD450 nm.
The mark [18] stands for this setting: read-out: cell viability (survival rate), HepG2, drug 10 μM, 72 hours, WST-1, OD450 nm.
The mark [19] stands for this setting: read-out: cell viability (survival rate), A549, drug 10 μM, 72 hours, WST-1, OD450 nm.
Where [20] appears, read: read-out: cell viability (survival rate), MCF7, drug 10 μM, 72 hours, WST-1, OD450 nm.
[21] abbreviates: read-out: cell viability (survival rate), AGS, drug 10 μM, 72 hours, WST-1, OD450 nm.
[22] abbreviates: read-out: cell viability (survival rate), PC3, drug 10 μM, 72 hours, WST-1, OD450 nm.
The mark [23] stands for this setting: read-out: cell viability (survival rate), TSGH, drug 10 μM, 72 hours, WST-1, OD450 nm.
Setting [24] is: read-out: cell viability (survival rate), H1650, drug 10 μM, 72 hours, WST-1, OD450 nm.

Structures can show the parent of a compound that is named as a salt. Where two headings read alike, the source gives them in different places.

What is called viability is a read-out of living cells in per cent, often relative to untreated cells.

As to `NC(=O)C(c1ccccc1)(c1ccccc1)[C@@H]1CCN(CCc2ccc3c(c2)CCO3)C1` [Darifenacin HBr], the viability at 10 µM turned out to be 93.5% in [1] (drug 10 μM, 72 hours, WST-1, OD450 nm, read-out: cell viability (survival rate), LoVo); 78.2% in assay [2] (drug 10 μM, 72 hours, WST-1, OD450 nm, read-out: cell viability (survival rate), HL-60); 82.4% in assay [3] (drug 10 μM, 72 hours, WST-1, OD450 nm, read-out: cell viability (survival rate), MKN-45); 87.7% in assay [4] (drug 10 μM, 72 hours, WST-1, OD450 nm, read-out: cell viability (survival rate), HeLa); 60.5% in assay [5] (drug 10 μM, 72 hours, WST-1, OD450 nm, read-out: cell viability (survival rate), A375); 81.6% in assay [6] (drug 10 μM, 72 hours, WST-1, OD450 nm, read-out: cell viability (survival rate), HepG2). The viability at 10 µM amounted to 100% in assay [7] (drug 10 μM, 72 hours, WST-1, OD450 nm, read-out: cell viability (survival rate), A549); 59.7% in assay [8] (drug 10 μM, 72 hours, WST-1, OD450 nm, read-out: cell viability (survival rate), MCF7); 80.4% in [9] (drug 10 μM, 72 hours, WST-1, OD450 nm, read-out: cell viability (survival rate), AGS); 86.1% in [10] (drug 10 μM, 72 hours, WST-1, OD450 nm, read-out: cell viability (survival rate), PC3); 99.8% in assay [11] (drug 10 μM, 72 hours, WST-1, OD450 nm, read-out: cell viability (survival rate), TSGH); 126% in assay [12] (drug 10 μM, 72 hours, WST-1, OD450 nm, read-out: cell viability (survival rate), H1650). In the assay on cancer cell lines, the “inhibition effect on different cancer cell lines” value is “significant inhibition effect”.

Turning to `CN1CCN(c2c(F)cc3c(=O)c(C(=O)O)cn4c3c2OCN4C)CC1` [Marbofloxacin], the viability at 10 µM in assay [1] (setting [13]) came to 108%; in assay [2] (setting [14]), 105%; in assay [3] (setting [15]), 112%; in [4] (setting [16]), 88.2%; in assay [5] (setting [17]), 86.8%; in assay [6] (setting [18]) it was 95.6%. The viability at 10 µM in assay [7] (setting [19]) was 83.8%; in assay [8] (setting [20]), 92.3%; in [9] (setting [21]), 81.2%; in assay [10] (setting [22]) it was 78.4%; in assay [11] (setting [23]), 91.6%; in assay [12] (setting [24]) it was 80.3%. Besides, in the assay on cancer cell lines, the “inhibition effect on different cancer cell lines” value is on record as “significant inhibition effect”.

For `Nc1nc2c(ncn2CCC(CO)CO)c(=O)[nH]1` [Penciclovir], the viability at 10 µM in assay [1] (setting [13]) stood at 98.5%; in [2] (setting [14]), 114%; in assay [3] (setting [15]), 98.5%; in assay [4] (setting [16]), 81.7%; in assay [5] (setting [17]), 64.2%; in assay [6] (setting [18]) it was 95.7%. For the same compound, the viability at 10 µM amounted to 74.7% in assay [7] (setting [19]); 110% in assay [8] (setting [20]); 71% in assay [9] (setting [21]); 106% in [10] (setting [22]); 79.1% in [11] (setting [23]); 71.5% in [12] (setting [24]). The “inhibition effect on different cancer cell lines” value in the assay on cancer cell lines is on record as “significant inhibition effect”.

For `Nc1[nH]c(=O)ncc1F` [Flucytosine (Ancobon), Flucytosine], the viability at 10 µM was determined as 108% in assay [1] (setting [13]); 102% in assay [2] (setting [14]); 72.9% in [3] (setting [15]); 80.9% in assay [4] (setting [16]); 102% in [5] (setting [17]); 93.2% in [6] (setting [18]). Moreover, the viability at 10 µM in [7] (setting [19]) was found to be 91.4%; in assay [8] (setting [20]), 75.3%; in assay [9] (setting [21]) it was 70.7%; in assay [10] (setting [22]), 108%; in [11] (setting [23]), 93.9%; in [12] (setting [24]), 92.1%. The “inhibition effect on different cancer cell lines” value in the assay on cancer cell lines is “significant inhibition effect”.

With `Nc1ncnc2c1ncn2[C@@H]1O[C@H](CO)[C@@H](O)[C@@H]1O` [Vidarabine (Vira-A), Vidarabine], the viability at 10 µM in [1] (setting [13]) was 72.9%; in [2] (setting [14]) it was 99%; in [3] (setting [15]), 44.4%; in assay [4] (setting [16]), 47.7%; in [5] (setting [17]), 48.1%; in assay [6] (setting [18]) it was 74.2%. For the same compound, the viability at 10 µM in [7] (setting [19]) worked out at 32.2%; in [8] (setting [20]), 36.5%; in [9] (setting [21]), 104%; in [10] (setting [22]), 70.6%; in assay [11] (setting [23]) it was 68.6%; in assay [12] (setting [24]), 78.8%. For the same compound, in the assay on cancer cell lines, the “inhibition effect on different cancer cell lines” value is given as “significant inhibition effect”.

For `O=C(O)Cc1ccccc1Nc1c(Cl)cccc1Cl` [Diclofenac Potassium], the viability at 10 µM in [1] (setting [13]) was 85%; in [2] (setting [14]) it was 96.3%; in assay [3] (setting [15]), 40.5%; in assay [4] (setting [16]), 76.1%; in [5] (setting [17]), 51.5%; in assay [6] (setting [18]), 107%. In addition, the viability at 10 µM stood at 81.7% in [7] (setting [19]); 76.3% in assay [8] (setting [20]); 91.4% in assay [9] (setting [21]); 63.3% in assay [10] (setting [22]); 122% in [11] (setting [23]); 43.9% in assay [12] (setting [24]). Also, the “inhibition effect on different cancer cell lines” value in the assay with cancer cell lines was “significant inhibition effect”.

As to `Nc1ccc(S(=O)(=O)Nc2ccccn2)cc1` [Sulfapyridine (Dagenan), Sulfapyridine], the viability at 10 µM in assay [1] (setting [13]) worked out at 84.6%; in assay [2] (setting [14]), 111%; in assay [3] (setting [15]) it was 53.8%; in assay [4] (setting [16]), 71.2%; in [5] (setting [17]) it was 77.2%; in [6] (setting [18]) it was 98.9%. Also, the viability at 10 µM in assay [7] (setting [19]) was found to be 64.5%; in assay [8] (setting [20]), 54.7%; in [9] (setting [21]), 71.9%; in [10] (setting [22]) it was 108%; in assay [11] (setting [23]) it was 64.6%; in assay [12] (setting [24]), 69.5%. Also, in the assay with cancer cell lines, the “inhibition effect on different cancer cell lines” value is recorded as “significant inhibition effect”.

For `C[C@]12C=CC(=O)C=C1CC[C@@H]1[C@@H]2[C@@H](O)C[C@@]2(C)[C@H]1CC[C@]2(O)C(=O)CO` [Prednisolone (Hydroretrocortine), Prednisolone], the viability at 10 µM was 92.5% in assay [1] (setting [13]); 99% in assay [2] (setting [14]); 67.8% in [3] (setting [15]); 78.7% in assay [4] (setting [16]); 71% in [5] (setting [17]); 82.7% in assay [6] (setting [18]). In addition, the viability at 10 µM in assay [7] (setting [19]) came to 71.3%; in assay [8] (setting [20]), 45.5%; in assay [9] (setting [21]) it was 124%; in assay [10] (setting [22]) it was 83.3%; in [11] (setting [23]), 86.2%; in assay [12] (setting [24]), 82.5%. Moreover, the “inhibition effect on different cancer cell lines” value with cancer cell lines is given as “significant inhibition effect”.

As for `CC(NCCc1ccc(O)cc1)C(O)c1ccc(O)cc1` (stereo not drawn) [Ritodrine hydrochloride (Yutopar), Ritodrine hydrochloride], the viability at 10 µM in assay [1] (setting [13]) is 104%; in assay [2] (setting [14]), 86%; in assay [3] (setting [15]) it was 97.2%; in [4] (setting [16]) it was 133%; in assay [5] (setting [17]) it was 87.4%; in assay [6] (setting [18]) it was 92.8%. The viability at 10 µM in assay [7] (setting [19]) worked out at 95.5%; in [8] (setting [20]) it was 86.5%; in [9] (setting [21]) it was 80.1%; in assay [10] (setting [22]), 113%; in assay [11] (setting [23]), 64.4%; in [12] (setting [24]), 96.4%. Moreover, the “inhibition effect on different cancer cell lines” value in the assay on cancer cell lines is recorded as “significant inhibition effect”.
